Assay results as given in patent US11725107B2, “Polylysine polymers with antimicrobial and/or anticancer activity” (International Business Machines Corporation, priority 2019, dated 2023).

These compounds were tested on K. pneumoniae (assay: Antimicrobial activity (MIC) of polymers and antibiotics individually). Details: Klebsiella pneumoniae, agents individually.
Assay type: cell-based
From the text: As depicted in FIGS. 1-5, “m” can represent a number that is, for example, greater than or equal to 5 and less than or equal to 30, and/or “n” can represent a number that is, for example, greater than or equal to 0 and less than or equal to 25. Additionally, the “*” can represent: one or more repetitions of all and/or parts of the structures shown, one or more hydrogens, an alkyl group, an aryl group, a combination thereof, and/or the like. Unless otherwise stated, materials utilized to facilitate the experiments, tables, charts, diagrams, and/or the like described herein can be acquired from the following sources. The bacteria Staphylococcus aureus (“S. aureus”, ATCC 29737), Escherichia coli (“E. coli”, ATCC 25922), Pseudomonas aeruginosa (“P. aeruginosa”, ATCC 9027), Candida albicans (“C. albicans”, ATCC 10231), and/or Klebsiella pneumoniae (“K. pneumoniae”, ATCC700603) were acquired from American Type Culture Collection (“ATCC”).
Further, Table 1, presented below, can depict the antimicrobial activity of the guanidinium functionalized polylysine polymers and/or antibiotics individually with regards to K. pneumoniae.
Compound CO[C@H]1/C=C/O[C@@]2(C)Oc3c(C)c(O)c4c(O)c(c(/C=N/N5CCN(C)CC5)c(O)c4c3C2=O)NC(=O)/C(C)=C\C=C\[C@H](C)[C@H](O)[C@@H](C)[C@@H](O)[C@@H](C)[C@H](OC(C)=O)[C@@H]1C [Rifampicin] has an MIC of 31.3 µg/mL. CO/N=C(\C(=O)N[C@@H]1C(=O)N2C(C(=O)O)=C(CSC(=O)c3ccco3)CS[C@H]12)c1csc(N)n1 [Ceftiofur] showed an MIC of 4 to 8 µg/mL. CCN1CCN(c2cc3c(cc2F)c(=O)c(C(=O)O)cn3C2CC2)CC1 [Enrofloxacin] was tested, and the MIC was 1 µg/mL. For CN(C)[C@@H]1C(O)=C(C(N)=O)C(=O)[C@@]2(O)C(O)=C3C(=O)c4c(O)ccc(Cl)c4[C@@](C)(O)[C@H]3C[C@@H]12 [Chlortetracycline], the MIC was 15.6 µg/mL.
